ChEMBL document CHEMBL6109177, “AI-Driven De Novo Design and Development of Nontoxic DYRK1A Inhibitors” (J Med Chem, 2025)
Active and inactive are the calls of the source. The rule behind the calls is not given here.

Assays:
BV-2 [1] = assay: Anti-inflammatory activity in mouse BV-2 cells assessed as reduction in LPS-induced NO production at 10 uM pretreated with LPS for 24 hrs followed by compound addition and measured after 24 hrs by Griess reagent based analysis; format: functional, cell-based
BV-2 [2] = assay: Cytotoxicity against mouse BV-2 cells assessed as cell viability up to 10 uM by MTT assay; format: toxicity, cell-based; settings: bv-2, 10 µM
BV-2 [3] = assay: Anti-inflammatory activity in mouse BV-2 cells assessed as reduction in LPS-induced NO production pretreated with LPS for 24 hrs followed by compound addition and measured after 24 hrs by Griess reagent based analysis; format: functional, cell-based; settings: dose 0.5-5 µM
BV-2 [4] = assay: Cytotoxicity against mouse BV-2 cells assessed as cell viability at 5 uM by MTT assay; format: toxicity, cell-based; settings: bv-2, 5 µM
BV-2 [5] = assay: Anti-inflammatory activity in mouse BV-2 cells assessed as reduction in LPS-induced NO production at 5 uM pretreated with LPS for 24 hrs followed by compound addition and measured after 24 hrs by Griess reagent based analysis; format: functional, cell-based
BV-2 [6] = assay: Cytotoxicity against mouse BV-2 cells assessed as cell viability at 10 uM by MTT assay; format: toxicity, cell-based; settings: bv-2, 10 µM

| SMILES | Activity (BV-2 [1]) | Activity (BV-2 [2]) | Activity (BV-2 [3]) | Activity (BV-2 [4]) | Activity (BV-2 [5]) | Activity (BV-2 [6]) |
| --- | --- | --- | --- | --- | --- | --- |
| Clc1cc(Cl)cc(-c2c[nH]c3ncc(-c4cnn(C5CCNCC5)c4)cc23)c1 | Active | Non-toxic | – | – | – | – |
| Fc1cccc(-c2c[nH]c3ncc(-c4cnn(C5CCNCC5)c4)cc23)c1 | – | – | Dose-dependent-effect | Non-toxic | Active; Compound Showed Most Pronounced Effect Compared With Other Tested Compounds | Toxic |
| CN1CCC(n2cc(-c3cnc4[nH]cc(-c5cccc(F)c5)c4c3)cn2)CC1 | – | – | Dose-dependent-effect | Non-toxic | Active; Compound Showed Most Pronounced Effect Compared With Other Tested Compounds | Toxic |
| COc1cc(-c2c[nH]c3ncc(-c4cnn(C5CCN(C)CC5)c4)cc23)c(F)cc1C | Active | Non-toxic | – | – | – | – |
| CN1CCC(n2cc(-c3cnc4[nH]cc(-c5cc(Cl)cc(Cl)c5)c4c3)cn2)CC1 | Active | Non-toxic | – | – | – | – |
| COc1cccc(-c2c[nH]c3ncc(-c4cnn(C5CCN(C)CC5)c4)cc23)c1 | – | – | Dose-dependent-effect | Non-toxic | Active | Toxic |
| COc1cc(-c2c[nH]c3ncc(-c4cnn(C5CCNCC5)c4)cc23)c(F)cc1C | Active | Non-toxic | – | – | – | – |
| COc1cccc(-c2c[nH]c3ncc(-c4cnn(C5CCNCC5)c4)cc23)c1 | – | – | Dose-dependent-effect | Non-toxic | Active | Toxic |
